Laboratory results published in patent US20260207564A1, “DOSAGE REGIME OF ORFORGLIPRON FOR TREATING A SUBJECT WITH TYPE 2 DIABETES (T2D), OBESITY, OR OVERWEIGHT WITH AT LEAST ONE WEIGHT RELATED COMORBIDITY” (Eli Lilly and Company, priority 2022, published 2026).
Like-named read-outs stand apart in the source and are kept apart here. Blank lines part the entries; values can stand above or below the compound they belong to.

Legend:
[1] = type: in vivo, human; conditions: for percentage of patients who attained an HbA1c of 7% or less: 26 weeks
Experimental: Two Phase 2 studies have evaluated the safety and efficacy of Compound 1a for the treatment of T2D and another for treatment of obesity or overweight with at least one weight related comorbidity.
The 36 and 45 mg cohorts were subdivided in a 36 mg-1 and 36 mg-2 as well as 45 mg-1 and 45 mg-2 respectively, as different starting doses, dose escalations and dose escalation steps were investigated in these subgroup cohorts (FIG. 4).
Eligible male or female participants were >18 years of age with T2D with a HbA1c 7.0% to 10.5% and a body mass index (BMI) of ≥23 kg/m2, treated with diet and exercise alone or with a stable dose of metformin and with a stable body weight (≤5% body weight gain and/or loss) for at least 3 months prior to screening/Visit 1.
The study period included a 2-week screening/lead in period and a 26-week treatment period. During the treatment period, doses were escalated for all treatment groups. The dose escalation period ranged from 4 to 12 weeks depending on dose group. The initial dose was 2 or 3 mg followed by additional escalation steps depending on assigned cohort (FIG. 4). […] All participants were provided healthy eating and exercise education by study personnel throughout the trial.
Key Safety and tolerability endpoints included the frequency of patient- and investigator-reported adverse events, rate and incidence of hypoglycaemia events (glucose <70 mg/dL [3.9 mmol/L] and ≥54 mg/dL [3.0 mmol/L], or glucose <54 mg/dL [3.0 mmol/L]), and change in safety laboratory parameters, electrocardiogram, and vital signs.
The estimand used for efficacy analyses was an “efficacy estimand”, representing the average treatment effect for the randomized population if the treatment was administered as intended, thus including data from all randomized participants who received at least one dose of study drug and excluding data after permanent discontinuation of study drug. All tests of treatment effects were conducted at a 2-sided alpha level of 0.05 without adjustment for multiple comparisons, and 2-sided 95% CIs were calculated.
Safety analyses were conducted by comparing safety of OFG with placebo and with dulaglutide irrespective of adherence to study drug. The safety analyses were conducted using the safety analysis set, which includes all randomized participants who received at least one dose of study drug. The results were presented in summary statistics, point estimates, and 95% confidence intervals along with p-values for treatment comparisons.

[2] = Phase 1 food effect study A, single 3 mg dose, healthy adults (Example 6); type: in vivo, human; conditions: for AUC(0-inf) / Cmax / half-life: human, in vivo, oral, 3 mg; for AUC(0-inf): read-out: AUC(0-∞), geometric LS mean (geometric CV %); for Cmax: read-out: Cmax, geometric LS mean (geometric CV %); for half-life: read-out: T1/2, geometric mean (range) (converted)
[3] = Phase 1 food effect study B, 16 mg daily dose reached by weekly escalation, healthy adults (Example 6); type: in vivo, human; conditions: for AUC(0-t): read-out: AUC(0-24), geometric LS mean (geometric CV %); for Cmax: read-out: Cmax, geometric LS mean (geometric CV %)
[4] = human, in vivo, oral, 16 mg, STUDY B - 16 mg (with titration), Fasted
[5] = human, in vivo, oral, 16 mg, STUDY B - 16 mg (with titration), Fed

pulse rate changes from baseline ([1]; in vivo): +3.0 to +6.1 bpm
Tmax, median (range) ([2]; STUDY A - 3 mg, Fasted): 8.0 (4.0-24.0) h
AUC(0-inf) ([2]; STUDY A - 3 mg, Fasted): 362 ng·h/mL
Cmax ([2]; STUDY A - 3 mg, Fasted): 13.4 ng/mL
half-life ([2]; STUDY A - 3 mg, Fasted): 29.5 h
AUC(0-inf) ([2]; STUDY A - 3 mg, Fed): 260 ng·h/mL
Cmax ([2]; STUDY A - 3 mg, Fed): 10.1 ng/mL
half-life ([2]; STUDY A - 3 mg, Fed): 27.9 h
Tmax and T½ with or without food ([2]; study A): similar
AUC(0-∞) lower when administered with food ([2]; study A, single 3 mg dose): 24%
Cmax lower in the fed state ([2]; study A, single 3 mg dose, fed vs fasted): 23%
Tmax, median (range) ([3]; STUDY B - 16 mg (with titration), Fasted): 8.0 (4.0-16.0) h
Tmax, median (range) ([3]; STUDY B - 16 mg (with titration), Fed): 8.0 (4.0-24.0) h
AUC(0-t) [3, 4]: 1200 ng·h/mL
Cmax [3, 4]: 80.5 ng/mL
half-life ([3]; human, in vivo, oral, 16 mg, STUDY B - 16 mg (with titration), Fasted, read-out: T1/2, geometric mean (range) (converted)): 26 h
AUC(0-t) [3, 5]: 1050 ng·h/mL
Cmax [3, 5]: 67.5 ng/mL
Tmax and T½ with or without food ([3]; study B): similar
AUC(0-24) lower when administered with food ([3]; study B, 16 mg daily dose): 18%
Cmax lower in the fed state ([3]; study B, 16 mg daily dose, fed vs fasted): 21%
Compound: Cc1cc(-n2nc3c(c2-n2ccn(-c4ccc5c(cnn5C)c4F)c2=O)[C@H](C)N(C(=O)c2cc4cc([C@H]5CCOC(C)(C)C5)ccc4n2[C@@]2(c4noc(=O)[nH]4)C[C@@H]2C)CC3)cc(C)c1F [OFG, 3-[(1S,2S)-1-[5-[(4S)-2,2-dimethyloxan-4-yl]-2-[(4S)-2-(4-fluoro-3,5-dimethylphenyl)-3-[3-(4-fluoro-1-methylindazol-5-yl)-2-oxoimidazol-1-yl]-4-methyl-6,7-dihydro-4H-pyrazolo[4,3-c]pyridine-5-carbonyl]indol-1-yl]-2-methylcyclopropyl]-4H-1,2,4-oxadiazol-5-one, 0.5 Ca hydrate]
percentage of patients who attained an HbA1c of 7% or less ([1]; across OFG dose groups): 65.2% to 95.8
most common adverse events ([1]; in vivo): gastrointestinal, mild to moderate in severity
systolic or diastolic blood pressure compared with dulaglutide or placebo ([1]; in vivo): no statistically significant differences
fasting glucose ([1]; versus placebo): significant improvements versus placebo
mean changes from baseline in body weight ([1]; week 26, OFG 3 mg): -3.7 kg
body weight ETD versus dulaglutide ([1]; week 26, OFG 12 mg): -2.6 kg
body weight ETD versus placebo ([1]; week 26, OFG 12 mg): -4.3 kg
mean changes from baseline in body weight ([1]; week 26, OFG 12 mg): -6.5 kg
body weight ETD versus dulaglutide ([1]; week 26, OFG 24 mg): -5.9 kg
body weight ETD versus placebo ([1]; week 26, OFG 24 mg): -7.6 kg
mean changes from baseline in body weight ([1]; week 26, OFG 24 mg): -9.7 kg
body weight ETD versus dulaglutide ([1]; week 26, OFG 36 mg): -5.7 kg
body weight ETD versus placebo ([1]; week 26, OFG 36 mg): -7.4 kg
mean changes from baseline in body weight ([1]; week 26, OFG 36 mg): -9.5 kg
body weight ETD versus dulaglutide ([1]; week 26, OFG 45 mg): -6.2 kg
body weight ETD versus placebo ([1]; week 26, OFG 45 mg): -7.9 kg
mean changes from baseline in body weight ([1]; week 26, OFG 45 mg): -10.1 kg
mean change in HbA1c from baseline ([1]; week 26, across OFG dose groups): −0.77% to −1.67
treatment emergent adverse events (TEAEs) severity ([2]; study A): mild
TEAE decreased appetite ([3]; study B): 69.7%
TEAE nausea ([3]; study B): 48.5%
TEAE vomiting ([3]; study B): 45.5%
TEAEs occurrence over dosing ([3]; study B): occurred most often with the starting dose and decreased with dose escalation
treatment emergent adverse events (TEAEs) severity ([3]; study B): mild

Compound: dulaglutide [reference compound]
percentage of patients who attained an HbA1c of 7% or less ([1]; dulaglutide 1.5 mg): 64.1%
pulse rate changes from baseline ([1]; in vivo): +2.3 bpm
mean changes from baseline in body weight ([1]; week 26, dulaglutide): -3.9 kg
mean change in HbA1c from baseline ([1]; week 26, dulaglutide 1.5 mg): −1.1%
